Experimental data taken from patent US7326689B2, “Pseudomycins useful against plant diseases” (Eli Lilly and Company, priority 2000, dated 2008).

Key:
Assay in all cases: Antifungal growth assay in potato dextrose broth, 24-well
Format in all cases: cell-based
Set-up in all cases: key: NI, no inhibition; p (partial), at least 50% inhibited
[1] = system: Botrytis alli; conditions: 2x assays
Method: (§1) Fungi to be tested were propagated on potato dextrose agar (PDA) plates at room temperature. Stock solutions of pseudomycins and depsipeptide were suspended in dimethylsulfoxide (DMSO) (Sigma) at 5 mg/ml and stored at −20C. Serial dilutions of compounds were done the day of the experiment. All serial dilutions were made in DMSO. […] These are noted in the raw data section.
(§2) Assays were performed in 24-well cell culture clusters (Costar 3524), with 990 ul potato dextrose broth (PDB, Difco) and 10 ul of the compound to be tested in each well. Initial concentrations tested were 50-1.56 ug/ml (final concentration of pseudomycin). Actual concentrations of pseudomycins tested were 50, 25, 12.5, 6.25, 3.12 and 1.56 ug/ml. Each well was inoculated with the appropriate fungus. Unless noted, the fungal inoculum consisted of an ˜4 mm^2 piece of PDA with fungal mycelium. The exceptions were as follows. Ustilago maydis: this fungus grows much like a yeast on PDA, and cells were scraped from the PDA stock plate, resuspended in PDB and 10 ul inoculum added to each well. Monilinia sp.: this fungal mycelium grows as a very loose sheet on top of PDA and would not adhere to agar blocks. Fungal mycelium was ground with a metal rod in 500 ul PDB and 10 ul inoculum was added to each well. Mycosphaeella fijiensis, Septoria passerinii, Septoria triticii: these fungi all grow very slowly and the results were difficult to score if a small piece of agar with fungal mycelium on it was used as an inoculum. For these fungi, the mycelium was ground with a metal rod in 500 ul PDB and 10 ul inoculum was added to each well.
(§3) Wells were scored for fungal growth at two days and five days. Some slow growing fungi were scored at later days for growth because assessment was not possible at two or five days. Growth was scored by comparison to a control consisting of fungus inoculated into 990 ul potato dextrose broth and 10 ul of DMSO (Dimethylsulfoxide). An additional control consisting of fungal inoculum in PDB only was performed to ensure that the DMSO was not inhibitory to fungal growth.
(§4) For assays that were repeated, new stock solutions were made from a second shipment of pseudomycins. Note that pseudomycin B′ and depsipeptide stock solutions were remade from first shipment materials because these were not included in the second shipment. […] Actual concentrations of pseudomycins tested were 2, 1, 0.5, 0.25, 0.125 and 0.0625 ug/ml. A-PO4 and A-FB=pseudomycin A phosphate salt and free base respectively.
(§5) Table 2: Two day results—concentration indicated is lowest level of compound (ug /ml) that results is no growth. NI, no inhibition; p (partial), at least 50% inhibited; -, not determined. If number of assays was greater than one, number of assays performed on the fungus is noted in parentheses. For several slow-growing fungi, days elapsed before observation (if different than two) are noted.
(§6) Table 3: Five day results—concentration indicated is lowest level of compound (ug /ml) that results in no growth. NI, no inhibition; p (partial), at least 50% inhibited; -, not performed on the fungus is noted in parentheses. For several slow-growing fungi, days elapsed before observation (if different than five) are noted.

[2] = system: Phytophthora cinnemani
Method: as §1, §2, §3, §4, §5, §6

[3] = system: Bipolaris sorokiniana
Method: as §1, §2, §3, §4, §5, §6

[4] = system: Fusarium avenaceum
Method: as §1, §2, §3, §4, §5, §6

[5] = system: Pestalotiopsis microspora NE-32
Method: as §1, §2, §3, §4, §5, §6

[6] = system: Sclerotinia sclerotiorum; conditions: 2x assays
Method: as §1, §2, §3, §4, §5, §6

[7] = system: Aphanomyces sp.; conditions: 2x assays
Method: as §1, §2, §3, §4, §5, §6

[8] = system: Diplodia natalensis
Method: as §1, §2, §3, §4, §5, §6

[9] = system: Fusarium culmorum
Method: as §1, §2, §3, §4, §5, §6

[10] = system: Cochliobolus carbonum
Method: as §1, §2, §3, §4, §5, §6

[11] = system: Fusarium solani
Method: as §1, §2, §3, §4, §5, §6

[12] = system: Drechslera teres
Method: as §1, §2, §3, §4, §5, §6

[13] = system: Tapesia acuformis; conditions: 2x assays
Method: as §1, §2, §3, §4, §5, §6

[14] = system: Phoma chrysamthecola; conditions: five day results
Method: as §1, §2, §3, §4, §5, §6

[15] = system: Fusarium oxysporum cubense
Method: as §1, §2, §3, §4, §5, §6

[16] = system: Phytophthora parasitica
Method: as §1, §2, §3, §4, §5, §6

[17] = system: Drechslera tritici-repentis
Method: as §1, §2, §3, §4, §5, §6

[18] = system: Alternaria helianthi; conditions: 2x assays
Method: as §1, §2, §3, §4, §5, §6

[19] = system: Phyllosticta maydis
Method: as §1, §2, §3, §4, §5, §6

Substance | lowest level of compound that results in no growth ([1]; five day results) | lowest level of compound that results in no growth ([1]; two day results) | lowest level of compound that results in no growth ([2]; five day results) | lowest level of compound that results in no growth ([2]; two day results) | lowest level of compound that results in no growth ([3]; five day results) | lowest level of compound that results in no growth ([3]; two day results) | lowest level of compound that results in no growth ([4]; five day results) | lowest level of compound that results in no growth ([4]; two day results) | lowest level of compound that results in no growth ([5]; five day results) | lowest level of compound that results in no growth ([5]; two day results) | lowest level of compound that results in no growth ([6]; five day results) | lowest level of compound that results in no growth ([6]; two day results) | lowest level of compound that results in no growth ([7]; five day results) | lowest level of compound that results in no growth ([7]; two day results) | lowest level of compound that results in no growth ([8]; five day results) | lowest level of compound that results in no growth ([8]; two day results) | lowest level of compound that results in no growth ([9]; five day results) | lowest level of compound that results in no growth ([9]; two day results) | lowest level of compound that results in no growth ([10]; five day results) | lowest level of compound that results in no growth ([10]; two day results) | other results
Pseudomycin B | NI | NI | NI | NI | NI | NI | NI | NI | p at 50 | p at 50 | NI | p at 50 | 50 µg/mL | p at 50 | NI | NI | NI | NI | NI | NI | lowest level of compound that results in no growth ([11]; five day results): NI; lowest level of compound that results in no growth ([11]; two day results): p at 50; lowest level of compound that results in no growth ([12]; five day results): NI; lowest level of compound that results in no growth ([12]; two day results): NI; lowest level of compound that results in no growth ([13]; five day results): NI; lowest level of compound that results in no growth ([13]; two day results): NI; lowest level of compound that results in no growth [14]: p at 50; lowest level of compound that results in no growth ([15]; five day results): NI; lowest level of compound that results in no growth ([15]; two day results): NI; lowest level of compound that results in no growth ([16]; five day results): NI; lowest level of compound that results in no growth ([16]; two day results): NI; lowest level of compound that results in no growth ([17]; five day results): p at 50; lowest level of compound that results in no growth ([17]; two day results, 2x assays): 50 µg/mL; lowest level of compound that results in no growth ([18]; five day results): 50 µg/mL; lowest level of compound that results in no growth ([18]; two day results): NI; lowest level of compound that results in no growth ([19]; five day results): 50 µg/mL; lowest level of compound that results in no growth ([19]; two day results): 50 µg/mL
pseudomycin A-PO4 | p at 50 | 50 µg/mL | NI | NI | NI | NI | NI | NI | NI | p at 50 | NI | NI | p at 50 | 50 µg/mL | NI | NI | NI | NI | NI | NI | lowest level of compound that results in no growth ([11]; five day results): NI; lowest level of compound that results in no growth ([11]; two day results): NI; lowest level of compound that results in no growth ([12]; five day results): NI; lowest level of compound that results in no growth ([12]; two day results): NI; lowest level of compound that results in no growth ([13]; five day results): 50 µg/mL; lowest level of compound that results in no growth ([13]; two day results): 50 µg/mL; lowest level of compound that results in no growth [14]: NI; lowest level of compound that results in no growth ([15]; five day results): NI; lowest level of compound that results in no growth ([15]; two day results): NI; lowest level of compound that results in no growth ([16]; five day results): NI; lowest level of compound that results in no growth ([16]; two day results): NI; lowest level of compound that results in no growth ([17]; five day results): p at 50; lowest level of compound that results in no growth ([17]; two day results, 2x assays): 50 µg/mL; lowest level of compound that results in no growth ([18]; five day results): 25 µg/mL; lowest level of compound that results in no growth ([18]; two day results): 25 µg/mL; lowest level of compound that results in no growth ([19]; five day results): NI; lowest level of compound that results in no growth ([19]; two day results): p at 50
Pseudomycin C′ | NI | NI | NI | NI | NI | NI | NI | NI | NI | NI | p at 50 | 50 µg/mL | p at 50 | 25 µg/mL | NI | NI | NI | NI | NI | NI | lowest level of compound that results in no growth ([11]; five day results): NI; lowest level of compound that results in no growth ([11]; two day results): NI; lowest level of compound that results in no growth ([12]; five day results): NI; lowest level of compound that results in no growth ([12]; two day results): NI; lowest level of compound that results in no growth ([13]; five day results): NI; lowest level of compound that results in no growth ([13]; two day results): NI; lowest level of compound that results in no growth [14]: NI; lowest level of compound that results in no growth ([15]; five day results): NI; lowest level of compound that results in no growth ([15]; two day results): NI; lowest level of compound that results in no growth ([16]; five day results): NI; lowest level of compound that results in no growth ([16]; two day results): NI; lowest level of compound that results in no growth ([17]; five day results): NI; lowest level of compound that results in no growth ([17]; two day results, 2x assays): 50 µg/mL; lowest level of compound that results in no growth ([18]; five day results): NI; lowest level of compound that results in no growth ([18]; two day results): p at 50; lowest level of compound that results in no growth ([19]; five day results): NI; lowest level of compound that results in no growth ([19]; two day results): p at 50
